Measured values reported in patent US7495027B2, “3-aryl-4-hydroxyfuranone compounds and the human and animal health use thereof” (Wyeth, priority 2003, dated 2009).
In brackets after ≈: the same amount, converted by molar mass. Where two headings read alike, the source gives them in different places.

Assays:
[1] = test system: staphylococci; test: Minimum inhibitory concentration, microdilution broth method, staphylococci; type: cell-based; details: Mueller-Hinton broth, 18-22 hours at 35° C.; for MIC: Staphylococcus aureus
Summary of the method: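 MIC by microdilution, NCCLS M7-A5. Media: MH broth (staph, enterococci); MH + 5% lysed horse blood (strep). Strains incl. methicillin-, penicillin- and/or vancomycin-resistant clinical isolates.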

[2] = molecular target: E. coli Enopyruvyl-UPD-N-acetylglucosamine reductase, Mur B (Escherichia coli, UniProt P08373); test: biochemical; details: (E) E. coli enzyme; for IC50: read-out: MurB IC50 (converted)
[3] = molecular target: T1, S. aureus Uridine-diphosphate-N-acetylmuramoyl-L-alanine: D-glutamate liease, MurD (Staphylococcus aureus, UniProt Q2FZ92); test: biochemical; details: (S) S. aureus enzyme
T1 sequence (Q2FZ92 1-449): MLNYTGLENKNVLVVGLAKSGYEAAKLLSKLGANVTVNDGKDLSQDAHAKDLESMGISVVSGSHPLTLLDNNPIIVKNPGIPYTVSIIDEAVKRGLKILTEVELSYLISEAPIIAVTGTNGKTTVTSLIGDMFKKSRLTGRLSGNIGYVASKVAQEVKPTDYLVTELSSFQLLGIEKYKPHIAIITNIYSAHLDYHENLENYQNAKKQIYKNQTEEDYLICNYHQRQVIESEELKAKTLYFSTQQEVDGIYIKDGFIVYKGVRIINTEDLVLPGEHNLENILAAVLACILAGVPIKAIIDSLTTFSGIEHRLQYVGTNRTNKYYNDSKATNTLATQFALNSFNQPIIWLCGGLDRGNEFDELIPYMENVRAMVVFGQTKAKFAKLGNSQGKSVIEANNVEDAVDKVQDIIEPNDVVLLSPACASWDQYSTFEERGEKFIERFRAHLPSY
Summary of the method: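 Test solutions, 10 mg/mL stocks in DMSO, were brought to 100 μg/mL with 50 mM Tris/HCl (pH 8.5). Their inhibition of MurD, the enzyme of the fourth cell wall biosynthesis step, was measured.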

[4] = molecular target: T2, S. aureus Uridine-diphosphate-N-acetvimuramoyl: L-alanine lipase, MurC (Staphylococcus aureus, UniProt Q2FXJ0); test: biochemical; details: (S) S. aureus enzyme; for IC50: read-out: MurC IC50 (converted)
T2 sequence (Q2FXJ0 1-437): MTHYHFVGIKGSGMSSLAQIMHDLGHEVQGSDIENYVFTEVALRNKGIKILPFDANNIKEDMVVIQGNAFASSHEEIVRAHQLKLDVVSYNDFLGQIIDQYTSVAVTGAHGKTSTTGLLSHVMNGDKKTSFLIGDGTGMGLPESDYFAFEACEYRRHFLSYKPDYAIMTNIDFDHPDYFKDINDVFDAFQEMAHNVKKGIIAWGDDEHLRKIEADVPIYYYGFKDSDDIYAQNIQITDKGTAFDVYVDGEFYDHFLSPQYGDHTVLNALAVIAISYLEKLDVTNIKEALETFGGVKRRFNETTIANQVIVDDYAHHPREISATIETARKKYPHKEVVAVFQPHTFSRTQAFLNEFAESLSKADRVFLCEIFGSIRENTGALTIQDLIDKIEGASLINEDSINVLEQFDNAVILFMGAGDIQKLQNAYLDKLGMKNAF
Experimental: S. aureus and E. coli Uridine-diphosphate-N-acetvimuramoyl: L-alanine lipase, MurC
Preparation of Enzyme Solution:
A 1 mg/mL stock solution of MurC is prepared in a buffer consisting of 20 mM Tris/HCl (pH 8.5) with 2.5 μM BME. The stock solution is further diluted with the buffer to give a final enzyme concentration of 100 μg/mL for the E. coli stock solution and 70 μg/mL for the S. aureus stock solution.
Preparation of Test Compound Solutions:
All test solutions are prepared in DMSO as 10 mg/mL, then diluted with 50 mM Tris/HCl (pH 8.5) to 100 μg/mL.
Preparation of Stop Solution:
The stop solution is prepared by stirring 1 part 4.2% ammonium molydbate in 4N HCl with 2 parts 0.045% malachite green for 30 min.
In this evaluation, the inhibitory activity of a test compound against MurC, the enzyme which catalyzes the third step of bacterial cell wall bioxynthesis is determined. Experiments are performed by adding 2.5 μl buffer, 2.5 μl 0.5M NH4SO2, 5 μl 2 μM L-Ala, 5 μl enzyme solution and 6.5 μl test compound solution to each well in a 96-well microplate. After a pre-incubation period of 10 mins. at 23° C., 3.75 μl of a 0.75 μM solution of UDP-MurNac is added to each well. Following an incubation period of 10 mins. at 37° C., 210 μl stop solution and 50 μl of a 34% w/v sodium citrate solution are added and color is allowed to develop for 10 mins. at 23° C. (Lanzetta et al., Analytical Biochemistry, 1979, 95) Optical density readings are taken at 660 nm using a Molecular Devices Spectra Max 250 with Soft Max software. Controls are performed using the same procedure and omitting the addition of UDP-MurNac. […]
Using these values the IC50 is determined by linear regression analysis.

[5] = S. aureus GC 1131, read-out: MIC S. aureus GC 1131
[6] = S. aureus GC 4543, read-out: MIC S. aureus GC 4543

Chain of E. coli Enopyruvyl-UPD-N-acetylglucosamine reductase, Mur B (P08373 whole entry): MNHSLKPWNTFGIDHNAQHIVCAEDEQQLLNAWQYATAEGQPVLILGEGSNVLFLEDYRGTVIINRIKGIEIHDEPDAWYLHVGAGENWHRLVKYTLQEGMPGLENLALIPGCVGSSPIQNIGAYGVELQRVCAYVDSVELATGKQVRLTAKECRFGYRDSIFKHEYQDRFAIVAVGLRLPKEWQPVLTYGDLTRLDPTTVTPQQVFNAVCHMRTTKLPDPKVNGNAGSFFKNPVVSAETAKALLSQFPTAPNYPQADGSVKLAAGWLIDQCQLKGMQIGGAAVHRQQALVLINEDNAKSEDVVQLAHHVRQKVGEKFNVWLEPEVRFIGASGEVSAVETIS

Question: Which results are given for `O=Cc1cccc(C2=C(O)/C(=C/c3cccc4ccccc34)OC2=O)c1` [Example 76]?
Answer: MIC [1, 5]: > 128 µg/mL; MIC [1, 6]: > 128 µg/mL; IC50 [2]: 20.4 µM; IC50 [3]: > 73 µM; IC50 [4]: 52.6 µM

Question: `O=C1OC(=Cc2cccc3ccccc23)C(O)=C1c1ccc(C=NO)cc1` (mixture of isomers) [Example 73] was tested. Which “MIC S. aureus GC 1131” value ([1]; S. aureus GC 1131) did it give?
Answer: The value was >128 µg/mL.

Question: And the “MIC S. aureus GC 4543” value ([1]; S. aureus GC 4543)?
Answer: Its value is >128 µg/mL.

Question: And the “MurB IC50” value [2]?
Answer: The value was > 25 µg/mL.

Question: And the “MurD IC50” value [3]?
Answer: Its value is >25 (E); >25 (S) μg/mL.

Question: And the “MurC IC50” value [4]?
Answer: Its value is 23 µg/mL.

Question: With `COc1cc(/C=C2\OC(=O)C(c3cccc(Cl)c3)=C2O)ccc1-c1ccccc1Cl` [Example 18] as the compound, how does the MIC [1, 5] read?
Answer: Its MIC is 4 µg/mL (≈ 9.11 µM).

Question: And the MIC [1, 6]?
Answer: Its MIC is 4 µg/mL (≈ 9.11 µM).

Question: What about the IC50 [2] of the same compound?
Answer: The IC50 was 13.7 µM.

Question: What about the IC50 [3] of the same compound?
Answer: Its IC50 is 41 µM.

Question: What about the IC50 [4] of the same compound?
Answer: The IC50 was 22.8 µM.

Question: For `COc1ccc(/C=C2\OC(=O)C(c3cc(Cl)cc(Cl)c3)=C2O)c2ccccc12` [Example 36], which MIC [1, 5] is on record?
Answer: Its MIC is 4 µg/mL (≈ 9.68 µM).

Question: What about the MIC [1, 6] of the same compound?
Answer: The MIC was 4 µg/mL (≈ 9.68 µM).

Question: And the IC50 [3]?
Answer: Its IC50 is 21.8 µM.

Question: What about the IC50 [4] of the same compound?
Answer: Its IC50 is 12.1 µM.

Question: With `COc1ccccc1-c1ccc(/C=C2\OC(=O)C(c3cc(Cl)cc(Cl)c3)=C2O)cc1C` [Example 24] as the compound, how does the MIC [1, 5] read?
Answer: Its MIC is 2 µg/mL (≈ 4.41 µM).

Question: What about the MIC [1, 6] of the same compound?
Answer: The MIC was 1 µg/mL (≈ 2.21 µM).

Question: What about the IC50 [2] of the same compound?
Answer: Its IC50 is 8.82 µM.

Question: And the IC50 [3]?
Answer: The IC50 was 24.3 µM.

Question: What about the IC50 [4] of the same compound?
Answer: Its IC50 is 26.5 µM.

Question: For `O=C1O/C(=C\c2cccnc2)C(O)=C1c1ccc(-c2ccccc2)cc1` [Example 101], which MIC [1, 5] is on record?
Answer: The MIC was > 128 µg/mL.

Question: What about the MIC [1, 6] of the same compound?
Answer: The MIC was > 128 µg/mL.

Question: And the IC50 [2]?
Answer: Its IC50 is > 73.2 µM.

Question: What about the IC50 [3] of the same compound?
Answer: The IC50 was > 73.2 µM.

Question: And the IC50 [4]?
Answer: Its IC50 is 67.4 µM.

Question: Which MIC [1, 5] does the source give for `Cc1ccc(/C=C2\OC(=O)C(c3ccc(-c4ccccc4)cc3)=C2O)s1` [Example 104] here?
Answer: The MIC was 16 µg/mL (≈ 44.4 µM).

Question: And the MIC [1, 6]?
Answer: Its MIC is 32 µg/mL (≈ 88.8 µM).

Question: And the IC50 [3]?
Answer: Its IC50 is > 69.4 µM.

Question: And the IC50 [4]?
Answer: The IC50 was 52.7 µM.

Question: How did the MIC [1, 5] turn out when `O=C1O/C(=C\c2cccc(C(F)(F)F)c2)C(O)=C1c1ccc2ccccc2c1` [Example 42] was run?
Answer: Its MIC is 8 µg/mL (≈ 20.9 µM).

Question: And the MIC [1, 6]?
Answer: The MIC was 8 µg/mL (≈ 20.9 µM).

Question: And the “MurB IC50” value [2]?
Answer: The value was 10 (E) μg/mL.

Question: And the IC50 [3]?
Answer: The IC50 was > 65.4 µM.

Question: And the IC50 [4]?
Answer: The IC50 was 47.1 µM.

Question: With `COc1cc(/C=C2\OC(=O)C(c3cc(Cl)cc(Cl)c3)=C2O)ccc1-c1ccccc1C(F)(F)F` [Example 33] as the compound, how does the MIC [1, 5] read?
Answer: Its MIC is 0.5 µg/mL (≈ 0.986 µM).

Question: And the MIC [1, 6]?
Answer: The MIC was 0.5 µg/mL (≈ 0.986 µM).

Question: And the IC50 [2]?
Answer: Its IC50 is 3.94 µM.

Question: What about the IC50 [3] of the same compound?
Answer: Its IC50 is > 49.3 µM.

Question: And the IC50 [4]?
Answer: Its IC50 is > 49.3 µM.

Question: For `O=C1OC(=Cc2ccc(-c3ccccc3)cc2)C(O)=C1c1cccc(C(F)(F)F)c1` (mixture of isomers) [Example 11], which “MIC S. aureus GC 1131” value ([1]; S. aureus GC 1131) is on record?
Answer: Its value is 4 µg/mL.

Question: What about the “MIC S. aureus GC 4543” value ([1]; S. aureus GC 4543) of the same compound?
Answer: The value was 2 µg/mL.

Question: What about the “MurB IC50” value [2] of the same compound?
Answer: The value was 6 (E) μg/mL.

Question: What about the “MurD IC50” value [3] of the same compound?
Answer: Its value is 11 µg/mL.

Question: What about the “MurC IC50” value [4] of the same compound?
Answer: The value was 5 µg/mL.

Question: Which MIC [1, 5] does the source give for `O=C1O/C(=C\c2cccc3ccccc23)C(O)=C1c1cccc2ccccc12` [Example 47] here?
Answer: Its MIC is 16 µg/mL (≈ 43.9 µM).

Question: What about the MIC [1, 6] of the same compound?
Answer: Its MIC is 32 µg/mL (≈ 87.8 µM).

Question: What about the IC50 [2] of the same compound?
Answer: Its IC50 is 63.1 µM.

Question: What about the IC50 [3] of the same compound?
Answer: Its IC50 is > 68.6 µM.

Question: How did the MIC [1, 5] turn out when `O=C1O/C(=C\c2ccc(N3CCOCC3)c3ccccc23)C(O)=C1c1cc(Cl)cc(Cl)c1` [Example 38] was run?
Answer: The MIC was 8 µg/mL (≈ 17.1 µM).

Question: What about the MIC [1, 6] of the same compound?
Answer: Its MIC is 8 µg/mL (≈ 17.1 µM).

Question: And the IC50 [3]?
Answer: The IC50 was 12.8 µM.

Question: What about the IC50 [4] of the same compound?
Answer: Its IC50 is 14.9 µM.

Question: For `O=C1O/C(=C\c2ccc(N3CCOCC3)c3ccccc23)C(O)=C1c1cccc(Cl)c1` [Example 37], which MIC [1, 5] is on record?
Answer: The MIC was 16 µg/mL (≈ 36.9 µM).

Question: What about the MIC [1, 6] of the same compound?
Answer: The MIC was 16 µg/mL (≈ 36.9 µM).

Question: And the IC50 [3]?
Answer: The IC50 was 43.8 µM.

Question: What about the IC50 [4] of the same compound?
Answer: The IC50 was 23 µM.

Question: How did the MIC [1, 5] turn out when `O=C1O/C(=C\C2CCCCC2)C(O)=C1c1ccc(-c2ccccc2)cc1` [Example 100] was run?
Answer: The MIC was > 128 µg/mL.

Question: What about the MIC [1, 6] of the same compound?
Answer: The MIC was > 128 µg/mL.

Question: And the IC50 [3]?
Answer: The IC50 was 69.3 µM.

Question: And the IC50 [4]?
Answer: The IC50 was 46.2 µM.
